From ChEMBL document CHEMBL3232962, “Identification and optimization of novel Hsp90 inhibitors with tetrahydropyrido[4,3-d]pyrimidines core through shape-based screening” (Eur J Med Chem, 2014)

Assays:
[1] = target: T1, Heat shock protein HSP 90-beta (Homo sapiens, UniProt P08238); assay: Inhibition of full-length HSP90 (unknown origin) expressed in Escherichia coli assessed as inhibition of ATPase activity after 3 hrs by spectrophotometric analysis
[2] = target: T1, Heat shock protein HSP 90-beta; assay: Displacement of FITC-geldanamycin from HSP90 (unknown origin) after 30 mins by fluorescence polarization assay
[3] = Antiproliferative activity against human A231 cells after 48 hrs by MTT assay; type: functional, cell-based; conditions: A231, 48 h
cells = conditions: Homo sapiens, SK-BR-3, 48 h
Description: Antiproliferative activity against human SKBR3 cells after 48 hrs by MTT assay

MCF7 = assay: cells; conditions: Homo sapiens, MCF7, 48 h
HCT-116 = assay: cells; conditions: Homo sapiens, HCT-116, 48 h

T1 sequence (P08238 whole entry): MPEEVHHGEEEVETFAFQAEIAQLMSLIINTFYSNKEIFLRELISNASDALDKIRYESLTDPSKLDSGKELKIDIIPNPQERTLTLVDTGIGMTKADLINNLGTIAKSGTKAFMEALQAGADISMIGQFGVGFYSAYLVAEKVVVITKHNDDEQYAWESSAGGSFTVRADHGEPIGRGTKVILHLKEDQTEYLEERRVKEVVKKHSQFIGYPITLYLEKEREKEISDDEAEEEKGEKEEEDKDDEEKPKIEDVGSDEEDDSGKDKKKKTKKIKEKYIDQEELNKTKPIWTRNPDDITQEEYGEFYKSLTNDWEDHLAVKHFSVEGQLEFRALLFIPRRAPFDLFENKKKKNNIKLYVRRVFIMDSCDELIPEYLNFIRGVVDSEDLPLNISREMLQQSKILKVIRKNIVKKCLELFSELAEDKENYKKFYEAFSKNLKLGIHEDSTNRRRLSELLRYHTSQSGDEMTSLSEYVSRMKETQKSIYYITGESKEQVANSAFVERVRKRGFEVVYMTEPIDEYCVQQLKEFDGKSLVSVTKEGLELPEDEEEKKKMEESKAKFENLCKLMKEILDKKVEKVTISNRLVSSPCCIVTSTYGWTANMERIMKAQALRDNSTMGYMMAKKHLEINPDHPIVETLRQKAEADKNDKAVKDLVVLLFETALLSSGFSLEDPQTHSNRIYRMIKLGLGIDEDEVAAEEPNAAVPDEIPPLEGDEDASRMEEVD

| Structure (SMILES) | IC50 [1] [µM] | IC50 [2] [µM] | IC50 [3] [µM] | IC50 (cells) [µM] | IC50 (MCF7) [µM] | IC50 (HCT-116) [µM] |
| --- | --- | --- | --- | --- | --- | --- |
| COc1ccc(OC)c(CN2CCc3nc(N4CCN(c5ncccn5)CC4)ncc3C2)c1 | 35.2 | 45.4 | 27.5 | 10.7 | 53.2 | 43.2 |
| Nc1ncc2c(n1)CCN(C(=O)c1cc(Cl)c(O)cc1O)C2 | 0.51 | 0.31 | 5.22 | 2.3 | 4.41 | 1.21 |
| O=C(c1cc(Cl)c(O)cc1O)N1CCc2nc(N3CCN(c4ncccn4)CC3)ncc2C1 | 0.93 | 1.67 | 6.65 | 5.17 | 10.2 | 2.74 |
| COc1ccc(OC)c(C(=O)N2CCc3nc(N4CCN(c5ncccn5)CC4)ncc3C2)c1 | 16.4 | 40.4 | 51.3 | 23.5 | 43.3 | 34.6 |
| O=C(c1ccc(O)cc1O)N1CCc2nc(N3CCN(c4ncccn4)CC3)ncc2C1 | 3.23 | 10.2 | 21.3 | 12.2 | 17.5 | 23.1 |
| O=C(c1ccc(Cl)cc1)N1CCc2nc(N3CCN(c4ncccn4)CC3)ncc2C1 | 24.5 | > 100 | 24.6 | 11.2 | 42.2 | 21.7 |
| Cc1ncc2c(n1)CCN(C(=O)c1cc(Cl)c(O)cc1O)C2 | 0.42 | 0.1 | 3.76 | 4.32 | 1.91 | 2.82 |
| O=C(c1ccc(F)cc1)N1CCc2nc(N3CCN(c4ncccn4)CC3)ncc2C1 | 27.2 | > 100 | 54.4 | 24.5 | 46.2 | 67.9 |
| COc1ccc(C(=O)N2CCc3nc(N4CCN(c5ncccn5)CC4)ncc3C2)c(OC)c1 | 7.88 | 30.5 | 37.6 | 16 | 20.2 | 11.5 |
| CO[C@H]1/C=C\C=C(/C)C(=O)NC2=CC(=O)C(NCCN(C)C)=C(C[C@@H](C)C[C@H](OC)[C@H](O)[C@@H](C)/C=C(\C)[C@@H]1OC(N)=O)C2=O [ALVESPIMYCIN] | – | – | 0.17 | 3.11 | 0.8 | 1.21 |

Now from value to compound, other results behind:

| IC50 [1] [µM] | Structure (SMILES) | IC50 [2] [µM] | IC50 [3] [µM] | IC50 (cells) [µM] | IC50 (MCF7) [µM] | IC50 (HCT-116) [µM] |
| --- | --- | --- | --- | --- | --- | --- |
| 74.7 | CCN1CCN(c2ncc3c(n2)CCN(Cc2ccc(Br)s2)C3)CC1 | – | – | – | – | – |
| 50.9 | COc1cc(OC)c(OC)cc1CN1CCc2nc(N3CCOCC3)ncc2C1 | – | – | – | – | – |
| 0.35 | CC(C)c1cc(C(=O)N2Cc3ccc(CN4CCN(C)CC4)cc3C2)c(O)cc1O [ONALESPIB] | 0.03 | 1.01 | 0.14 | 0.28 | 0.08 |
| 63.2 | CN1CCN(c2ncc3c(n2)CCN(Cc2ccc(Br)s2)C3)CC1 | – | – | – | – | – |
| 55.1 | COc1cc(CN2CCc3nc(N4CCOCC4)ncc3C2)cc(OC)c1OC | – | – | – | – | – |
| 46.1 | CN(C)c1ccc(CN2CCc3nc(N4CCN(c5ncccn5)CC4)ncc3C2)cc1 | > 100 | – | – | – | – |
| 59.3 | CCCN1CCN(c2ncc3c(n2)CCN(Cc2cc(Br)cs2)C3)CC1 | – | – | – | – | – |
| > 100 | c1cc2c(cc1CN1CCc3nc(Nc4ccc5c(c4)OCCO5)ncc3C1)OCCO2 | – | – | – | – | – |
| 88 | CC1CCN(c2ncc3c(n2)CCN(Cc2ccc(Br)s2)C3)CC1 | – | – | – | – | – |
| 40.2 | Fc1ccc(CN2CCc3nc(N4CCN(c5ncccn5)CC4)ncc3C2)cc1 | > 100 | – | – | – | – |
| 47.9 | Clc1ccc(CN2CCc3nc(N4CCN(c5ncccn5)CC4)ncc3C2)cc1 | > 100 | – | – | – | – |
